Assay results from PMC5650530 (ACS chemical biology, 2017).
Where two headings read alike, the source gives them in different places.

Legend:
PPAR-γ = settings: cited from earlier work
PTGR2 [1] = molecular target: T1, PTGR2 (Homo sapiens, UniProt Q8N8N7); test: 15-keto PGE2 substrate assay with recombinant PTGR2 protein; assay type: biochemical; settings: read-out: IC50, inhibition of dhk-PGE2 production, 15-keto PGE2 and NADPH, 95% CI 4.4–16 μM
Target sequence in this assay (Q8N8N7 whole entry): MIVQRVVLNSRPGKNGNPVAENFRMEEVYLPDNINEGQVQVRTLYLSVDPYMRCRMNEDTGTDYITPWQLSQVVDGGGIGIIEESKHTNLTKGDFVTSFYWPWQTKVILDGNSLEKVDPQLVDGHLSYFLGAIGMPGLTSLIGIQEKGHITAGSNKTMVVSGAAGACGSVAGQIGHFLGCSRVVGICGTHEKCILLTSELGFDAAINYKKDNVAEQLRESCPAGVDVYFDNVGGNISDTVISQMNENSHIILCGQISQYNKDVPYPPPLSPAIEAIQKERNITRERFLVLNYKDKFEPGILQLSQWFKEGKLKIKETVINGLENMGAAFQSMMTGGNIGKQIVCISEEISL

PTGR2 [2] = molecular target: T1, PTGR2; test: 15-keto PGE2 reductase activity of PTGR2-transfected HEK293T cell lysates; assay type: biochemical; settings: read-out: IC50, inhibition of 15-keto PGE2 reductase activity; lysates from HEK293T cells transfected with PTGR2; 95% CI 1.4–2.4 μM
Target sequence in this assay (Q8N8N7 whole entry, species assumed): as the sequence (Q8N8N7 whole entry) above

PTGR2 [3] = molecular target: T1, PTGR2; test: LiPIP; assay type: binding; settings: KDT501 25 and 50 μM; A-DA or AEA-DA probe 10 μM; HEK293T cells
Target sequence in this assay (Q8N8N7 whole entry): as above

[4] = reference not given; cited from earlier work
BAIAP2 = molecular target: T2, BAIAP2 (Homo sapiens, UniProt Q9UQB8); test: LiPIP; assay type: binding; settings: KDT501 25 and 50 μM; A-DA or AEA-DA probe 10 μM; HEK293T cells
T2 sequence (Q9UQB8 1-552): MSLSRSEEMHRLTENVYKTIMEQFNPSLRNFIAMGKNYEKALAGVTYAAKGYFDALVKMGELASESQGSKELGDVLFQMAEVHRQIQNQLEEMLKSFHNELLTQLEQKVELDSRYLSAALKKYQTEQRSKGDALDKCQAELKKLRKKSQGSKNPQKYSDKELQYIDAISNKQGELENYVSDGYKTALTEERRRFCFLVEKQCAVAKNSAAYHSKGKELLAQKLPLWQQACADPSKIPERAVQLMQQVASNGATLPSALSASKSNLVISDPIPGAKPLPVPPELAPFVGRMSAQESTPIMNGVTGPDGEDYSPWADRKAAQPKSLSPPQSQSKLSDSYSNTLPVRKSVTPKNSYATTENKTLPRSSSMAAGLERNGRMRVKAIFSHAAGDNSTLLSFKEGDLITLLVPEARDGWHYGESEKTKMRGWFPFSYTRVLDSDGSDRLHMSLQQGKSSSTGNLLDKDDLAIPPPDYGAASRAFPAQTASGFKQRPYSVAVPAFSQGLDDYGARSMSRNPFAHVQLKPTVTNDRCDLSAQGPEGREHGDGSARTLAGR

PTGR2 [5] = molecular target: T1, PTGR2; assay type: binding; settings: read-out: IC50, blockade of A-DA probe labeling of recombinant PTGR2; transfected cell lysates; A-DA 5 μM; 95% CI 3.0–5.3 μM
Target sequence in this assay (Q8N8N7 whole entry, species assumed): as the sequence (Q8N8N7 whole entry) above

- IC50 (PTGR2 [1]): 8.4 µM
- IC50 (PTGR2 [2]): 1.8 µM
- blockade of lipid probe enrichment of PTGR2 (PTGR2 [3]): substantive blockade of enrichment
- blockade of lipid probe enrichment of BAIAP2 (BAIAP2): substantive blockade of enrichment
- IC50 (PTGR2 [5]): 4 µM
SMILES: CC(C)CCC(=O)[C@]1(O)C(=O)[C-](C(=O)CC(C)C)C(=O)[C@H]1CCC(C)C.[K+] (stereo partly shown) [KDT501]
- agonism of PPAR-γ (PPAR-γ): weak agonist
- moderately potent activity in cells (concentration) [4]: 10 to 50 µM
